# Values joined by “and” are separate entries in the source; they are usually repeats but may differ in a detail not shown here. Equal values may be shown once.
# Experiments:
# [1] = tested on: rat model of coronary ligation; experiment: Coronary artery ligation (myocardial infarction), mortality; type: in vivo; conditions: 21 days after coronary occlusion; once daily by gastric tube: P-5-P 10 mg/kg, captopril 100 mg/kg, propranolol 50 mg/kg, verapamil 25 mg/kg, aspirin 100 mg/kg; untreated 35%
# Description: The animals were anesthetized with ether, the skin incised along the left sternal border, the fourth rib cut proximal to the sternum, and retractors inserted. The pericardial sac was perforated and the heart was exteriorized through the intercostal space. The left coronary artery was ligated about 2 mm from its origin with a 6–0 silk suture and the heart was repositioned in the chest.
# Rats are anesthetized with 1–5% isoflurane in 100% O2 (2 L flow rate). The skin is incised along the left sterna border and the 4th rib is cut proximal to the sternum and a retractor inserted. The pericardial sac is opened and the heart externalized. The left anterior descending coronary artery is ligated approximately 2 mm from its origin on the aorta using a 6–0 silk suture. The heart is then repositioned in the chest and the incision closed via purse-string sutures.
# Sham operated rats undergo identical treatment except that the artery is not ligated. […] Unless indicated in the text, the experimental animals showing infarct size >30% of the left ventricle are used in this study. All animals are allowed to recover, allowed to receive food and water ad libitum, and are maintained for a period of 21 days for Electrocardiogram (ECG), hemodynamic, and histological assessment.
# While the complete healing of the scar occurs within 3 weeks of the coronary occlusion, mild, moderate and severe stages of congestive heart failure have been reported to occur at 4, 8 and 16 weeks after ligation.
# The rats are housed in clear cages in a temperature and humidity controlled room, on a 12 hour light-dark cycle. Food and water are supplied ad libitum. After surgery, rats are randomly assigned to treatment or non-treatment in both sham and experimental groups. Randomization of animals was performed and treatment begins 1 hour after coronary occlusion and continues for 21 days. The total duration of experiments in each case is 21 days. The groups are as follows: • 1) sham operated; • 2) coronary artery ligated (treatment with equal volumes of saline); • 3) coronary artery ligated (treated with 10 mg/kg P-5-P ); • 4) coronary artery ligated (treated with 100 mg/kg captopril); • 5) coronary artery ligated (treated with 50 mg/kg propranolol); • 6) coronary artery ligated (treated with 100 mg/kg aspirin); • 7) coronary artery ligated (treated with 25 mg/kg verapamil); • 8) coronary artery ligated (treated with 10 mg/kg P-5-P+100 mg/kg captopril); • 9) coronary artery ligated (treated with 10 mg/kg P-5-P+50 mg/kg propranolol); • 10) coronary artery ligated (treated with 10 mg/kg P-5-P+100 mg/kg aspirin); • 11) coronary artery ligated (treated with 10 mg/kg P-5-P+25 mg/kg verapamil). […]
# isolated rat hearts = experiment: Ischemia reperfusion in isolated rat hearts (Langendorff), left ventricular pressures; conditions: for % recovery (LVDP) / LVEDP / LVSP: 30 min ischemia, 60 min reperfusion; for % recovery (LVDP) / LVEDP / LVSP / LVDP (A) / LVDP (B): P-5-P 15 μM; for LVDP (A): after ischemia (30 min ischemia, 60 min reperfusion); for LVDP (B): before ischemia
# Description: Male Sprague-Dawley rats weighing 250–300 g are anaesthetized with a mixture of ketamine (60 mg/kg) and xylazine (10 mg/kg).
# The left ventricular end diastolic pressure (LVEDP) is adjusted at 10 mmHg at the beginning of the experiment. […] All hearts are stabilized for a period of 30 mm and then randomly distributed into nine different experimental groups (n=5–8 per group). The experimental groups are defined as follows: • 1) Control group (control hearts are further perfused for 90 minutes for a total of […] of continuous perfusion); • 2) Ischemia reperfusion group (Ischemia reperfusion hearts are made globally ischemic by stopping the coronary flow completely for 30 mm and then the hearts are reperfused for 60 mm); • 3) P-5-P (15 μM) treated group; • 4) captopril (100 μM) treated group; • 5) verapamil (0.01 μM)) treated group; […]) treated group; […]) treated group; • 8) P-5-P+captopril treated group; • 9) P-5-P+verapamil treated group; • 10) P-5-P+propranolol treated group; • 11) P-5-P+PPADS treated group.
# Drug treatment is started 10 min before global ischemia followed by 30 min global ischemia and 60 min reperfusion. At the end of some experiments, the hearts are quickly freeze-clamped with a liquid nitrogen precooled Wollenberger tong. Rats are housed in clear cages in a temperature and humidity controlled room on a 12 hr light-dark cycle. Food and water are supplied ad libitum.
# [2] = tested on: 10% sucrose induced hypertension in rats; experiment: 10% sucrose induced hypertension, systolic blood pressure (tail cuff); type: in vivo, rat
# Description: Zein et al., in their publication entitled Sugar-Induced Blood Pressure Elevations Over the Lifespan of Three Substrains of Wistar Rats in Am. Coll. […] Hulman et al. in their publication entitled The Effect of Excess Dietary Sucrose on Growth, Blood Pressure, and Metabolism in Developing Sprague-Dawley Rats in Pediatr. […] Reaven et al., in their publication entitled Sugar-Induced Hypertension in Sprague-Dawley Rats in Am.
# The blood pressure is monitored using the tail cuff method. The SBP is detected on an amplifier and the Acknowledge™ computer software program is used to determine the calculations.
# The effect of concurrent administration of pyridoxal-5′-phosphate and captopril or verapamil on systolic blood pressure (marker of hypertension) in 10% sucrose induced hypertension in rats is determined.
# [3] = tested on: rat model of coronary ligation; experiment: Hemodynamic changes, heart and scar weight after coronary artery ligation; type: in vivo; conditions: 21 days after coronary occlusion
# Description: The rats are housed in clear cages in a temperature and humidity controlled room, on a 12 hour light-dark cycle. Food and water are supplied ad libitum. After surgery, rats are randomly assigned to treatment or non-treatment in both sham and experimental groups. Randomization of animals was performed and treatment begins 1 hour after coronary occlusion and continues for 21 days. The total duration of experiments in each case is 21 days. The groups are as follows: • 1) sham operated; • 2) coronary artery ligated (treatment with equal volumes of saline); • 3) coronary artery ligated (treated with 10 mg/kg P-5-P ); • 4) coronary artery ligated (treated with 100 mg/kg captopril); • 5) coronary artery ligated (treated with 50 mg/kg propranolol); • 6) coronary artery ligated (treated with 100 mg/kg aspirin); • 7) coronary artery ligated (treated with 25 mg/kg verapamil); • 8) coronary artery ligated (treated with 10 mg/kg P-5-P+100 mg/kg captopril); • 9) coronary artery ligated (treated with 10 mg/kg P-5-P+50 mg/kg propranolol); • 10) coronary artery ligated (treated with 10 mg/kg P-5-P+100 mg/kg aspirin); • 11) coronary artery ligated (treated with 10 mg/kg P-5-P+25 mg/kg verapamil).
# P-5-P (10 mg/kg), captopril (100 mg/kg), propranolol (50 mg/kg), verapamil (25 mg/kg) and aspirin (100 mg/kg) were administered once daily by gastric tube.
# The animals are prepared and grouped as described in Example 10 and were anesthetized with a solution of ketamine/xylazine which was injected. To maintain adequate ventilation, the trachea was intubated; the right carotid artery was exposed for introducing a microtip pressure transducer (model SPR-249, Millar, Houston, Tex.) into the left ventricle. The catheter was secured with a silk ligature around the artery, and various hemodynamic parameters such as left ventricular systolic pressure (LVSP), left ventricular end diastolic pressure (LVEDP), rate of contraction (+dp/dt), rate of relaxation (−dP/dt) were recorded and calculated on a computer system using a Acknowledge 3.1 software.
# Once the hemodynamic parameters were measured the animals were sacrificed and hearts removed for measurement of heart weight, right ventricular weight, left ventricular weight and scar weight. Because complete healing of the scar in rats after coronary occlusion requires approximately 3 weeks, scar weight were measured only at 21 days.
SMILES,mortality rate [1],% recovery (LVDP) (isolated rat hearts; Captopril 100 μM),LVEDP (isolated rat hearts; Captopril 100 μM),LVSP (isolated rat hearts; Captopril 100 μM),% recovery (LVDP) (isolated rat hearts; PPADS 100 μM),LVEDP (isolated rat hearts; PPADS 100 μM),LVSP (isolated rat hearts; PPADS 100 μM),% recovery (LVDP) (isolated rat hearts; Propranolol 3 μM),LVEDP (isolated rat hearts; Propranolol 3 μM),LVSP (isolated rat hearts; Propranolol 3 μM),% recovery (LVDP) (isolated rat hearts; Verapamil 0.01 μM),LVEDP (isolated rat hearts; Verapamil 0.01 μM),LVSP (isolated rat hearts; Verapamil 0.01 μM),LVDP (A) (isolated rat hearts; Captopril 100 μM),LVDP (A) (isolated rat hearts; PPADS 100 μM),LVDP (A) (isolated rat hearts; Propranolol 3 μM),LVDP (A) (isolated rat hearts; Verapamil 0.01 μM),LVDP (B) (isolated rat hearts; Captopril 100 μM),LVDP (B) (isolated rat hearts; PPADS 100 μM),LVDP (B) (isolated rat hearts; Propranolol 3 μM),other results
CC(=O)Oc1ccccc1C(=O)O [aspirin],25%,–,–,–,–,–,–,–,–,–,–,–,–,–,–,–,–,–,–,–,–
"Cc1ncc(COP(=O)(O)O)c(C=O)c1O [Example P5P, pyridoxal-5′-phosphate]",15% and 10%,78.2 ± 3.3 %,35 ± 4.8 mmHg,98 ± 8.2 mmHg,78.2 ± 3.3%,35 ± 4.8 mmHg,98 ± 8.2 mmHg,78.2 ± 3.3 %,35 ± 4.8 mmHg,98 ± 8.2 mmHg,78.2 ± 3.3 %,35 ± 4.8 mmHg,98 ± 8.2 mmHg,63 ± 5,63 ± 5,63 ± 5,63 ± 5,80 ± 3.8,80 ± 3.8,80 ± 3.8,"% recovery (LVDP) (isolated rat hearts; Captopril 100 μM, listed as P-5-P): 78.2%; % recovery (LVDP) (isolated rat hearts; PPADS 100 μM, listed as P-5-P): 78.2%; % recovery (LVDP) (isolated rat hearts; Propranolol 3 μM, listed as P-5-P): 78.2%; % recovery (LVDP) (isolated rat hearts; Verapamil 0.01 μM, listed as P-5-P): 78.2%; LVDP (B) (isolated rat hearts; Verapamil 0.01 μM): 80 ± 3.8; benefit in ischemia reperfusion injury (isolated rat hearts; given alone, summary of Tables I-IV): significant benefit; effect on systolic blood pressure ([2]; treatment 1 week prior to inducing hypertension with a sucrose diet, FIGS. 29A, 29B): significant beneficial effect; effect on systolic blood pressure ([2]; treatment the same day as inducing hypertension with a sucrose diet, FIGS. 30A, 30B): significant beneficial effect; effect on systolic blood pressure ([2]; treatment two weeks after inducing hypertension with a sucrose diet, FIGS. 31A, 31B): significant beneficial effect; effect on scar weight ([3]; FIGS. 5-8): significant beneficial effect; effect on rate of contraction (+dP/dt) ([3]; FIGS. 9-12): significant beneficial effect; effect on left ventricular end diastolic pressure (LVEDP) ([3]; FIGS. 17-20): significant beneficial effect; effect on whole heart weight ([3]; FIGS. 21-24): significant beneficial effect; effect on right ventricular weight ([3]; FIGS. 25-28): significant beneficial effect"
"Cc1nc(N=Nc2ccc(S(=O)(=O)O)cc2S(=O)(=O)O)c(COP(=O)(O)O)c(C=O)c1O [PPADS, pyridoxal phosphate-6-azophenyl-2′,4′-disulphonic acid, reference compound]",–,–,–,–,61% and 61 ± 4.8 %,57 ± 6.3 mmHg,115 ± 11.5 mmHg,–,–,–,–,–,–,–,58 ± 13.6,–,–,–,92 ± 15.2,–,–
"C[C@H](CS)C(=O)N1CCC[C@H]1C(=O)O [Captopril, captopril, reference compound]",15%,61.4 ± 5.2 %,54 ± 6.7 mmHg,101 ± 14.6 mmHg,–,–,–,–,–,–,–,–,–,47 ± 8.6,–,–,–,78 ± 10.9,–,–,"% recovery (LVDP) (isolated rat hearts; Captopril 100 μM, listed as captopril): 61.4%"
"COc1ccc(CCN(C)CCCC(C#N)(c2ccc(OC)c(OC)c2)C(C)C)cc1OC (stereo not drawn) [Verapamil, verapamil, reference compound]",25%,–,–,–,–,–,–,–,–,–,43 ± 6.6%,55 ± 5.1 mmHg,78 ± 7.7 mmHg,–,–,–,23 ± 4.5,–,–,–,"% recovery (LVDP) (isolated rat hearts; Verapamil 0.01 μM, listed as verapamil): 43%; LVDP (B) (isolated rat hearts; Verapamil 0.01 μM): 54 ± 9.1"
"CC(C)NCC(O)COc1cccc2ccccc12 (stereo not drawn) [Propranolol, propranolol, reference compound]",–,–,–,–,–,–,–,74 ± 4.9 %,27 ± 6.6 mmHg,72 ± 15.1 mmHg,–,–,–,–,–,45 ± 9.7,–,–,–,61 ± 10.8,"% recovery (LVDP) (isolated rat hearts; Propranolol 3 μM, listed as propranolol): 74%"

# — patent publication US7125889B2, “Treating of cardiovascular and related pathologies” (Medicure International Inc., priority 1999, dated 2006)
